Assay [1] concerns the target T1, SARS-CoV-2 PLpro (nsp3 1564–1878) (Severe acute respiratory syndrome coronavirus 2, UniProt P0DTD1). Nature of the assay: biochemical. Also on record: FRET-quenched peptide (Pro3) cleavage by PLpro, 10 min pre-incubation, slope over 20 min, normalised to no-compound control. Conditions: low concentration screen, read-out: % of control remaining.
Experimental: The plates were organized with columns 3–22 containing the compounds; the remaining columns were used for reaction controls including substrate only and substrate with enzyme but no compound (Figure 3Aii). The PLpro enzyme was pre-incubated with the compounds for 10 min, and then the reaction was initiated by the addition of substrate. […] We incubated the inhibitors with PLpro before the enzymatic reaction so that the slow-binding inhibitors will not be missed out [21]. […] Fluorescence was read on a Spark multimode microplate reader (Tecan) with an excitation wavelength at 330 nm and emission wavelength at 420 nm. […] An amount of 5 µl of the enzyme was pre-incubated with compounds for 10 min before the addition of 15 µl substrate. Fluorescence was monitored at 2 min for 20 min with 3 min intervals giving a total of seven readings.
In assay [2] the target is T1, SARS-CoV-2 PLpro (nsp3 1564–1878). Nature of the assay: biochemical. Also noted: FRET-quenched peptide (Pro3) cleavage by PLpro, 10 min pre-incubation, slope over 20 min, normalised to no-compound control. Conditions: high concentration screen, read-out: % of control remaining.

Each structure is given as a SMILES string. Counter-ions that a name gives are not always drawn. Like-named read-outs stand apart in the source and are kept apart here.

With `Nc1ncn([C@H]2C[C@H](O)[C@@H](CO)O2)c(=O)n1` [Decitabine], the remaining activity at 1.25 µM in assay [1] (Well no.=5103) was found to be 102%. Besides, the remaining activity at 3.75 µM in assay [2] (Well no.=5103) was 99.8%.

On to `OCCOCCN1CCN(C(c2ccccc2)c2ccccc2)CC1` [Decloxizine (dihydrochloride)], for which the remaining activity at 1.25 µM in assay [1] (Well no.=8189) was 102%. Besides, the remaining activity at 3.75 µM in assay [2] (Well no.=8189) is 103%.

For `C=C1O[C@@](CO)(n2cnc3c(N)ncnc32)[C@H](O)[C@@H]1O` [Decoyinine], the remaining activity at 1.25 µM in assay [1] (Well no.=3223) is 100%. Also, the remaining activity at 3.75 µM in assay [2] (Well no.=3223) is 104%.

As for `CCCCCCCCCCC1=C(C)C(=O)C(OC)=C(OC)C1=O` [Decylubiquinone], the remaining activity at 1.25 µM in assay [1] (Well no.=3245) is 100%. For the same compound, the remaining activity at 3.75 µM in assay [2] (Well no.=3245) came to 99.1%.

`O=C(O)c1ccc(-n2nc(-c3ccccc3O)nc2-c2ccccc2O)cc1` [Deferasirox]: the remaining activity at 1.25 µM in assay [1] (Well no.=8190) came out at 107%. Further, the remaining activity at 3.75 µM in assay [2] (Well no.=8190) is 100%.

Consider `Cc1c(O)c(=O)ccn1C` [Deferiprone], for which the remaining activity at 1.25 µM in assay [1] (Well no.=5130) came to 97.3%. In assay [2] (Well no.=5130), the remaining activity at 3.75 µM stood at 98.7%.

As to `CC(=O)OCC(=O)[C@@]12N=C(C)O[C@@H]1C[C@H]1[C@@H]3CCC4=CC(=O)C=C[C@]4(C)[C@H]3[C@@H](O)C[C@@]12C` [Deflazacort], the remaining activity at 1.25 µM in assay [1] (Well no.=5566) is 103%; in assay [1] (Well no.=7613), 102%. Moreover, the remaining activity at 3.75 µM in assay [2] (Well no.=5566) came out at 104%; in assay [2] (Well no.=7613) it was 97.5%.

With `C[C@H](CCC(=O)O)[C@H]1CC[C@H]2[C@@H]3C(=O)C[C@@H]4CC(=O)CC[C@]4(C)[C@H]3CC(=O)[C@]12C` [Dehydrocholic acid], the remaining activity at 1.25 µM in assay [1] (Well no.=8300) was found to be 100%. Besides, the remaining activity at 3.75 µM in assay [2] (Well no.=8300) was 99%.

`C=C1CC[C@H]2C(=C)CC[C@H]3C(=C)C(=O)O[C@@H]3[C@@H]12` [Dehydrocostus lactone]: the remaining activity at 1.25 µM in assay [1] (Well no.=3206) turned out to be 101%. In addition, the remaining activity at 3.75 µM in assay [2] (Well no.=3206) was 100%.

In the case of `C[C@]12CC[C@H](O)CC1=CC[C@@H]1[C@@H]2CC[C@]2(C)C(=O)CC[C@@H]12` [Dehydroepiandrosterone], the remaining activity at 1.25 µM in assay [1] (Well no.=1972) came to 94.1%. Also, in assay [2] (Well no.=1972), the remaining activity at 3.75 µM is 98.4%.

Turning to `CC(C)Nc1cccnc1N1CCN(C(=O)c2cc3cc(NS(C)(=O)=O)ccc3[nH]2)CC1` [Delavirdine mesylate], the remaining activity at 1.25 µM in assay [1] (Well no.=1676) was 108%. The remaining activity at 3.75 µM in assay [2] (Well no.=1676) was 101%.

For the compound `CCN1C[C@]2(COC)CC[C@H](OC)[C@@]34C1[C@]1(OCO[C@@]15C[C@H](OC)[C@H]1C[C@@H]3[C@@H]5[C@H]1OC)[C@@H](O)[C@H]24` [Delcorine], the remaining activity at 1.25 µM in assay [1] (Well no.=3109) amounted to 98.2%. In addition, the remaining activity at 3.75 µM in assay [2] (Well no.=3109) turned out to be 101%.

In the case of `CCN1C[C@]2(C)CC[C@H](OC)[C@@]34C1[C@]1(OCO[C@@]15C[C@H](OC)[C@H]1C[C@]3(O)[C@@H]5[C@H]1OC)[C@@H](OC(C)=O)[C@H]24` [Deltaline], the remaining activity at 1.25 µM in assay [1] (Well no.=3111) turned out to be 101%. Moreover, in assay [2] (Well no.=3111), the remaining activity at 3.75 µM was 103%.

In the case of `c1ccc(Cn2c(-c3ccc(OC[C@H](C4CCNCC4)n4c(-c5ccccc5)nc5ccccc54)cc3)nc3ccccc32)cc1` [Deltarasin], in assay [1] (Well no.=8476), the remaining activity at 1.25 µM is 95.2%. For the same compound, in assay [2] (Well no.=8476), the remaining activity at 3.75 µM came out at 92.7%.

For `CN(C)[C@@H]1C(O)=C(C(N)=O)C(=O)[C@@]2(O)C(O)=C3C(=O)c4c(O)ccc(Cl)c4[C@@H](O)[C@H]3C[C@@H]12` [Demeclocycline hydrochloride], the remaining activity at 1.25 µM in assay [1] (Well no.=484) was 99.1%. In addition, the remaining activity at 3.75 µM in assay [2] (Well no.=484) was found to be 96.9%.

Regarding `COc1cc(/C=C/C(O)=C/C(=O)/C=C/c2ccc(O)cc2)ccc1O` [Demethoxycurcumin], the remaining activity at 1.25 µM in assay [1] (Well no.=6262) was determined as 103%. Moreover, the remaining activity at 3.75 µM in assay [2] (Well no.=6262) worked out at 98.7%.

For `C[C@H]1CC[C@@H]2[C@@H](C)[C@H]3[C@H](C[C@H]4[C@@H]5CC[C@H]6C[C@@H](O)CC[C@]6(C)[C@H]5CC[C@]34C)N2C1` [Demissidine], the remaining activity at 1.25 µM in assay [1] (Well no.=3202) came out at 104%. The remaining activity at 3.75 µM in assay [2] (Well no.=3202) is 107%.

`CCCCn1c(=O)c2c(ncn2CC(C)=O)n(CCCC)c1=O` [Denbufylline]: the remaining activity at 1.25 µM in assay [1] (Well no.=1765) was 102%. In addition, the remaining activity at 3.75 µM in assay [2] (Well no.=1765) stood at 99.8%.

Consider `Oc1ccc(OC2CCCCO2)cc1` (centres unmarked) [Deoxyarbutin], for which the remaining activity at 1.25 µM in assay [1] (Well no.=5166) stood at 103%. Besides, the remaining activity at 3.75 µM in assay [2] (Well no.=5166) turned out to be 101%.

For the compound `C[C@H](CCC(=O)O)[C@H]1CC[C@H]2[C@@H]3CC[C@@H]4C[C@H](O)CC[C@]4(C)[C@H]3C[C@H](O)[C@]12C` [Deoxycholic acid], the results for the remaining activity at 1.25 µM in assay [1] (Well no.=6153) and in assay [1] (Well no.=8537) were 107% and 102%, respectively. Also, the remaining activity at 3.75 µM in assay [2] (Well no.=6153) came out at 112%; in assay [2] (Well no.=8537), 103%.

Turning to `Nc1ccn([C@H]2C[C@H](O)[C@@H](COP(=O)(O)OP(=O)(O)OP(=O)(O)O)O2)c(=O)n1` [Deoxycytidine triphosphate], the remaining activity at 1.25 µM in assay [1] (Well no.=7355) was 99.9%; in assay [1] (Well no.=7870) it was 101%. Further, the remaining activity at 3.75 µM in assay [2] (Well no.=7355) was determined as 100%; in assay [2] (Well no.=7870), 102%.

Consider `CC(C)=CCCC1=CC(=O)c2c(O)ccc(O)c2C1=O` [Deoxyshikonin], for which, in assay [1] (Well no.=3164), the remaining activity at 1.25 µM was 86.1%. Besides, the remaining activity at 3.75 µM in assay [2] (Well no.=3164) is 85.7%.

For the compound `CN(N=O)c1cc(O)ccc1O` [Dephostatin], the remaining activity at 1.25 µM in assay [1] (Well no.=392) came to 97.4%. Besides, the remaining activity at 3.75 µM in assay [2] (Well no.=392) is 97.3%.

With `Cc1cc(N)c2ccccc2[n+]1CCCCCCCCCC[n+]1c(C)cc(N)c2ccccc21` [Dequalinium dichloride], the remaining activity at 1.25 µM in assay [1] (Well no.=449) came to 101%. The remaining activity at 3.75 µM in assay [2] (Well no.=449) is 96.8%.

Consider `COc1ccc(-c2cc(C(F)F)nn2-c2ccc(S(N)(=O)=O)cc2)cc1F` [Deracoxib], for which, in assay [1] (Well no.=7408), the remaining activity at 1.25 µM turned out to be 106%. Besides, the remaining activity at 3.75 µM in assay [2] (Well no.=7408) is 102%.

Consider `CNCCCN1c2ccccc2CCc2ccccc21` [Desipramine hydrochloride], for which the remaining activity at 1.25 µM in assay [1] (Well no.=545) came to 99.2%. Moreover, the remaining activity at 3.75 µM in assay [2] (Well no.=545) was 101%.

In the case of `N=C(N)NCCC[C@@H](NC(=O)[C@@H]1CCCN1C(=O)[C@@H]1CSSCCC(=O)N[C@@H](Cc2ccc(O)cc2)C(=O)N[C@@H](Cc2ccccc2)C(=O)N[C@@H](CCC(N)=O)C(=O)N[C@@H](CC(N)=O)C(=O)N1)C(=O)NCC(N)=O` [Desmopressin (Acetate)], the remaining activity at 1.25 µM in assay [1] (Well no.=8153) was 103%. Also, the remaining activity at 3.75 µM in assay [2] (Well no.=8153) was 96.9%.

For the compound `CC(C)=CCC[C@@H](C)[C@H]1CC[C@H]2[C@@H]3CC=C4C[C@@H](O)CC[C@]4(C)[C@H]3CC[C@]12C` [Desmosterol], in assay [1] (Well no.=5972), the remaining activity at 1.25 µM is 101%. Besides, in assay [2] (Well no.=5972), the remaining activity at 3.75 µM was 99%.

These data come from PMC8286840, “Identifying SARS-CoV-2 antiviral compounds by screening for small molecule inhibitors of Nsp3 papain-like protease” (Biochemical Journal, 2021).
